Results taken from US20230148599A1, “FUNGICIDAL MIXTURES CONTAINING PYRAZOLE DERIVATIVES” (FMC Corporation, priority 2020, published 2023).

Assays:
Type in all cases: in vivo
Conditions in all cases: 50 ppm, 100 = 100% disease control, 0 = no control
Alternaria solani = assay: Test F: tomato early blight, preventive spray on tomato seedlings
Procedure, shortened: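 Preventive test: one day after the compound spray, seedlings were inoculated with A. solani, incubated saturated at 27 °C for 48 h, then kept at 20 °C for 3 days. Test suspensions contained acetone/water 50/50 with 250 ppm PEG400 surfactant. Visual ratings run from 0 (no control) to 100 (full control).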

Septoria tritici = assay: Test A: wheat leaf blotch, preventive spray on wheat seedlings
Procedure, shortened: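 Preventive test: one day after spraying seedlings to run-off (concentrations in ppm; acetone/water, 250 ppm PEG400), Septoria tritici spores applied. Scored after 48 h humid incubation at 24 °C plus 17 days at 20 °C, as percent disease control versus untreated controls (100 = full control).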

[1] = system: Puccinia recondita f. sp. tritici; assay: Test B: wheat leaf rust, preventive spray on wheat seedlings
Procedure, shortened: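 Preventive test: compound in acetone/water 50/50 with 250 ppm PEG400 was sprayed onto wheat seedlings one day before inoculation with leaf rust spores. After 24 h in saturated air and 7 days in a growth chamber, both at 20 °C, disease control was scored from 0 to 100 against controls.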

Botrytis cinerea = assay: Test E: tomato Botrytis, preventive spray on tomato seedlings
Procedure, shortened: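 Preventive test: seedlings sprayed to run-off with compound in acetone/water (50/50) plus 250 ppm PEG400, inoculated one day later with B. cinerea spores. Held 48 h saturated at 20° C, then 3 days at 24° C; disease control scored visually from 0 to 100 versus controls.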

[2] = system: Blumeria graminis f. sp. tritici; assay: Test C: wheat powdery mildew, preventive spray on wheat seedlings
Procedure, shortened: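 Preventive test: inoculation with spore dust came one day after spraying seedlings to run-off with ppm suspensions in acetone/water (50/50) plus 250 ppm PEG400 surfactant. Visual ratings after 8 days' incubation at 20° C give percent disease control relative to controls.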

Phakopsora pachyrhizi = assay: Test D: Asian soybean rust, preventive spray on soybean seedlings
Procedure, shortened: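 Compounds in acetone/water (50/50) with 250 ppm PEG400, dosed in ppm, sprayed to run-off on soybean seedlings; inoculated with P. pachyrhizi spores next day. Held 24 h at 22 °C in saturated air, then 8 days at 22 °C; visual rating of disease control, 0–100, relative to untreated controls.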

For `CCc1nn(C)c(Nc2ccc(C)cc2[N+](=O)[O-])c1-c1ccc(F)cc1Cl` [compound 174], the “Test F disease control rating” value (Alternaria solani) was 39%, the “Test A disease control rating” value (Septoria tritici) was 100% and the “Test B disease control rating” value [1] was 95%. For the same compound, the “Test E disease control rating” value (Botrytis cinerea) was 99%, the “Test C disease control rating” value [2] was 92% and the “Test D disease control rating” value (Phakopsora pachyrhizi) was 0%.

`CCc1nn(C)c(Nc2ccc(C)cc2[N+](=O)[O-])c1-c1ccc(F)cc1F` [compound 175] was tested, and the “Test F disease control rating” value (Alternaria solani) was 0%, the “Test A disease control rating” value (Septoria tritici) was 100% and the “Test B disease control rating” value [1] was 86%. For the same compound, the “Test E disease control rating” value (Botrytis cinerea) was 88%, the “Test C disease control rating” value [2] was 79% and the “Test D disease control rating” value (Phakopsora pachyrhizi) was 0%.

`Cc1nn(C)c(Nc2c(Cl)cc(F)cc2[N+](=O)[O-])c1-c1ccc(Cl)cc1F` [compound 176] was tested, and the “Test F disease control rating” value (Alternaria solani) was 0%, the “Test A disease control rating” value (Septoria tritici) was 100% and the “Test B disease control rating” value [1] was 97%. For the same compound, the “Test E disease control rating” value (Botrytis cinerea) was 9%, the “Test C disease control rating” value [2] was 0% and the “Test D disease control rating” value (Phakopsora pachyrhizi) was 0%.

In the case of `Cc1cccc([N+](=O)[O-])c1Nc1c(-c2ccc(F)cc2F)c(C)nn1C` [compound 177], the “Test F disease control rating” value (Alternaria solani) was 9%, the “Test A disease control rating” value (Septoria tritici) was 100% and the “Test B disease control rating” value [1] was 97%. For the same compound, the “Test E disease control rating” value (Botrytis cinerea) was 100%, the “Test C disease control rating” value [2] was 50% and the “Test D disease control rating” value (Phakopsora pachyrhizi) was 0%.

With `Cc1cc(F)c(Nc2c(-c3ccc(F)cc3F)c(C)nn2C)c([N+](=O)[O-])c1` [compound 178] the “Test F disease control rating” value (Alternaria solani) was 100%, the “Test A disease control rating” value (Septoria tritici) was 100% and the “Test B disease control rating” value [1] was 100%. The “Test E disease control rating” value (Botrytis cinerea) was 100%, the “Test C disease control rating” value [2] was 99% and the “Test D disease control rating” value (Phakopsora pachyrhizi) was 97%.

In the case of `COc1ccc(Nc2c(-c3ccc(C#N)cc3F)c(C)nn2C)c([N+](=O)[O-])c1` [compound 179], the “Test F disease control rating” value (Alternaria solani) was 85%, the “Test A disease control rating” value (Septoria tritici) was 100% and the “Test B disease control rating” value [1] was 96%. The “Test E disease control rating” value (Botrytis cinerea) was 99%, the “Test C disease control rating” value [2] was 93% and the “Test D disease control rating” value (Phakopsora pachyrhizi) was 0%.

In the case of `COc1ccc(Nc2c(-c3ccc(C#N)cc3Br)c(C)nn2C)c([N+](=O)[O-])c1` [compound 180], the “Test F disease control rating” value (Alternaria solani) was 98%, the “Test A disease control rating” value (Septoria tritici) was 100% and the “Test B disease control rating” value [1] was 98%. For the same compound, the “Test E disease control rating” value (Botrytis cinerea) was 99%, the “Test C disease control rating” value [2] was 79% and the “Test D disease control rating” value (Phakopsora pachyrhizi) was 0%.

In the case of `Cc1cc(Cl)c(Nc2c(-c3ccc(F)cc3Br)c(C)nn2C)c([N+](=O)[O-])c1` [compound 181], the “Test F disease control rating” value (Alternaria solani) was 99%, the “Test A disease control rating” value (Septoria tritici) was 100% and the “Test B disease control rating” value [1] was 100%. The “Test E disease control rating” value (Botrytis cinerea) was 99%, the “Test C disease control rating” value [2] was 99% and the “Test D disease control rating” value (Phakopsora pachyrhizi) was 78%.

With `COc1ccc(-c2c(C)nn(C)c2Nc2c(F)cc(Br)cc2[N+](=O)[O-])c(Cl)c1` [compound 182] the “Test F disease control rating” value (Alternaria solani) was 99%, the “Test A disease control rating” value (Septoria tritici) was 100% and the “Test B disease control rating” value [1] was 99%. For the same compound, the “Test E disease control rating” value (Botrytis cinerea) was 100%, the “Test C disease control rating” value [2] was 76% and the “Test D disease control rating” value (Phakopsora pachyrhizi) was 0%.

`COc1ccc(-c2c(C)nn(C)c2Nc2c(C)cccc2[N+](=O)[O-])c(Cl)c1` [compound 183] was tested, and the “Test F disease control rating” value (Alternaria solani) was 58%, the “Test A disease control rating” value (Septoria tritici) was 100% and the “Test B disease control rating” value [1] was 99%. For the same compound, the “Test E disease control rating” value (Botrytis cinerea) was 100%, the “Test C disease control rating” value [2] was 78% and the “Test D disease control rating” value (Phakopsora pachyrhizi) was 0%.

In the case of `COc1ccc(-c2c(C)nn(C)c2Nc2c(Cl)cccc2[N+](=O)[O-])c(Cl)c1` [compound 184], the “Test F disease control rating” value (Alternaria solani) was 26%, the “Test A disease control rating” value (Septoria tritici) was 100% and the “Test B disease control rating” value [1] was 100%. The “Test E disease control rating” value (Botrytis cinerea) was 100%, the “Test C disease control rating” value [2] was 21% and the “Test D disease control rating” value (Phakopsora pachyrhizi) was 0%.

For `CCc1nn(C)c(Nc2c(F)cc(C)cc2[N+](=O)[O-])c1-c1ccc(F)cc1F` [compound 185], the “Test F disease control rating” value (Alternaria solani) was 99%, the “Test A disease control rating” value (Septoria tritici) was 100% and the “Test B disease control rating” value [1] was 100%. For the same compound, the “Test E disease control rating” value (Botrytis cinerea) was 96%, the “Test C disease control rating” value [2] was 99% and the “Test D disease control rating” value (Phakopsora pachyrhizi) was 0%.
